Source: patent publication US4248880A, “Treatment of gastric ulcers with naphthimidazole derivatives” (Hoffmann-La Roche Inc., priority 1977, dated 1981)

Columns and labels:
[1] = LD50 in the mouse; conditions: in vivo, po, per os
[2] = system: stress-induced gastric ulcers; test: inhibition of the formation of stress-induced gastric ulcers in rats (water bath); type: in vivo; conditions: Rattus norvegicus, po, 6 h; female rats 140 to 160 g; per os; water bath 22.5° C. for six hours; 10 rats per dosage; Probit method; read-out: ED50 (effective dosage at which 50% of the rats are protected against stress-induced ulcers)
Method: After six hours in the water, the animals were sacrificed and the incidence of ulcers noted. The ED50, that is, the dosage at which 50% of the 10 rats utilized per dosage are protected against stress-induced ulcers by the test compound was then determined according to the Probit method.

[3] = system: gastric acid secretion; test: inhibition of 4-methylhistamine-stimulated gastric acid secretion in the conscious Heidenhain pouch dog; type: in vivo; conditions: Canis lupus familiaris, oral, 4-methylhistamine dihydrochloride infusion i.v., read-out: effective therapeutic dosage (per os amount causing 60-80% inhibition of acid secretion produced by 4-methylhistamine)
Excerpt: A part of the stomach fundus of dogs is separated from the remaining stomach in the form of a pouch according to the Heidenhain technique described by Rudick et al in J. Surgical Research, vol. 7, pp 383-398 (1967). The pouch is fitted with a steel canula conducted externally through the abdominal wall and the operation is allowed to heal. Utilizing a conscious dog prepared as above, gastric secretion is stimulated by an infusion of 4-methylhistaminedihydrochloride (40 μ/kg per hr., i.v.) which selectively stimulates histamine H2 receptors. When volumes of fifteen minute samples of gastric secretion and pH levels appear constant, the test substance is administered orally and samples again taken. […] In the context of this procedure, an effective therapeutic dosage may be defined as the amount of test substance administered per os which causes an inhibition of from 60-80% of the acid secretion produced by the administration of 4-methylhistamine.

c1ccc(CSc2nc3cc4ccccc4cc3[nH]2)nc1 [2-[(2-pyridylmethyl)thio]-1H-naphth[2,3-d]imidazole]
LD50 [1]: > 5000 mg/kg | ED50 [2]: 12 mg/kg | ED (60-80) [3]: ~3 mg/kg

Cc1ccc(CSc2nc3cc4ccccc4cc3[nH]2)nc1 [2-/[(5-methyl-2-pyridyl)-methyl]thio/-1H-naphth[2,3-d]imidazole]
LD50 [1]: 8000 mg/kg | ED50 [2]: 31 mg/kg | ED (60-80) [3]: ~3 mg/kg
